Values of other authors in patent US8853275B2, “Concurrent therapy regime/regimen for the treatment of acne related diseases” (Galderma Research & Development, priority 2008, dated 2014).

Conditions: when combined with BPO; unlike tretinoin

- Stability in the presence of light: stable in the presence of light
SMILES: COc1ccc(-c2ccc3cc(C(=O)O)ccc3c2)cc1C12CC3CC(CC(C3)C1)C2 [Adapalene, 6-[3-(1-adamantyl)-4-methoxyphenyl]-2-naphtoïc acid]
